One compound from US6358521B1, “Fermented milk nutraceuticals” (priority 1993, dated 2002) can be followed below.

The test system of this assay is purulent wound infected with Staphylococcus aureus. The assay is described as follows: Purulent skin-facial wound model infected with Staphylococcus aureus, topical treatment. Type of assay: in vivo, Chinchilla rabbits. The method, then: The effect of topical administration of a fermented milk product prepared as described above was studied using 24 Chinchilla rabbits. Standard skin-facial wounds of about 2×2.5 cm (500 sq. mm) in size were inflicted in the back area of all the rabbits; a skin graft was dissected with subcutaneous fat and fascia up to a muscular layer, wound edges containing subcutaneous muscle were crushed with Kocher's forceps. Following hemeostasis, rabbits were infected by introducing 1 ml microbial suspension containing 1.5×10^9 Staphylococcus aureus into the wound.
All animals were divided into three groups each containing eight rabbits. In group I (test), the animals were treated with the fermented milk. For comparison, rabbits of Group II were treated with Rivanol (Chinosolfabrik, Germany). Group III consisted of control, untreated animals. Treatment was initiated on the third day postinfection. The fermented milk preparations were applied locally using liberally wetted, loosely placed napkins onto the wound followed by application of an aseptic dressing. Animals of the control group were maintained under identical conditions, and were subjected to daily wound sanitation and application of aseptic dressings.
The clinical course of wound healing was controlled based on a number of criteria—nature and amount of the discharge, terms for arresting a perifocal inflammatory reaction, necrolysis terms, emergence of granulations, epithelization, terms of a wound healing. At the same time, the surface area of the wound was measured; cytological, morphological studies of the wound edge and bottom were carried out; and bacteriological studies of wound discharge (prior and during the treatment) were performed. To determine the presence of microbes in sections, the preparations were Gram-Weigart stained. Bacteriological studies were carried out with regard to a rate and duration of Staphylococcus dissemination from a destruction focus. The following quantitative characteristics of dissemination were used: up to 25 colonies on a Petri dish=limited growth; up to 70 colonies=poor growth; up to 200 colonies=abundant growth; and more than 200 colonies=complete growth.
Material from a purulent wound was removed with a calcined and quenched standard loop, 3 mm in diameter, emulsified in 1 ml saline and then plated by 0.05 ml onto Petri dishes of plain agar. The plated material was placed in an incubator at 37° C. for 18-20 hours followed by Staphylococcus aureus colony count.

[1] abbreviates: local application, treatment from third day postinfection.

On to `CCOc1ccc2nc3cc(N)ccc3c(N)c2c1` [Rivanol], for which, under setting [1], the “Edge epithelization advent” value stood at 15.1 days, the “Full wound filling with granules” value was determined as 18.9 days and the “Full wound healing” value stood at 24.7 days. In addition, under “local application, treatment from third day postinfection, 8 rabbits per group”, the “First granulation advent” value is given as 7.0 days. Besides, under “local application, treatment from third day postinfection, column after first granulation advent”, the “Full wound healing, days (first column of that name)” value turned out to be 13.5 days. Besides, the “Nature of the cicatrix” value (study of cicatrices after healing) was “a more coarse cicatricial tissue prevailed”.
